In ChEMBL document CHEMBL1201862, “PubChem BioAssay data set” (2004):
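Protocol summary: plate cells (96-well), add compound at 5 concentrations, incubate 48 h, interpolate endpoints linearly. GI50: concentration for 50% inhibition of growth.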 Calls of active or inactive are those of the source. Rule as the data show it: active = GI50 up to about 1.1 µM and inactive = higher.

Key:
Test in all cases: NCI anticancer screen, dose series, 48 h
[1] = tested on: MDA-N
[2] = tested on: MCF7
[3] = tested on: A498
[4] = tested on: PC-3
[5] = tested on: NCI/ADR-RES
[6] = tested on: MDA-MB-435
[7] = tested on: DU-145
[8] = tested on: MDA-MB-231

Measured: GI50

O=c1ccn(COC(COCc2ccccc2)COCc2ccccc2)c(=O)[nH]1
inactive: [1] > 100 µM | [2] > 100 µM | [3] > 100 µM | [4] 77.6 µM | [5] > 100 µM | [6] > 100 µM | [7] > 100 µM | [8] 55.3 µM

CCOC(=O)NC(Nc1ncccn1)(C(=O)OCC)C(F)(F)F (stereo not given)
inactive: [1] > 100 µM | [2] > 100 µM | [4] > 100 µM | [5] > 100 µM | [6] > 100 µM | [7] > 100 µM | [8] > 100 µM
